Reference: patent publication US12624004B2 (Fudan University, priority 2019, dated 2026)
Counter-ions that a name gives are not always drawn. Like-named read-outs stand apart in the source and are kept apart here.

How the values were obtained:
κ opioid receptor = target: T1, κ opioid receptor (Homo sapiens, UniProt P41145); assay: Competition binding assay on membranes of CHO cells expressing κ opioid receptor, [3H]-labeled ligand; conditions: for Ki: read-out: κOR Ki
T1 construct: expressed in transfected cells; host or cells: CHO cells (membranes)
Experimental: (§1) CHO cells expressing p opioid receptor, δ opioid receptor and κ opioid receptor were cultured in 10 cm^2 culture dishes (F-12 medium+10% neonatal bovine serum) for several days, and the culture fluid was aspirated after the cells had grown to the bottom of the dishes; 3 ml of PBS/EDTA solution (0.1M NaCl, 0.01M NaH2PO4, 0.04% EDTA) was added to digest the cells for 3-5 min. Add ice-cold homogenate (50 mM HEPES PH 7.4, 3 mM MgCl, 1 mM EGTA) to the centrifuge tube, transfer the solution and sediment to a homogenizer and homogenize; then transfer the homogenate to a centrifuge tube and centrifuge at 18000 rpm. Centrifuge for 15 min, two times; the obtained precipitate was homogenized with appropriate amount of 50 mM Tris-HCl, pH 7.4 buffer and divided into centrifuge tubes and stored at −70° C. in the refrigerator until use.
(§2) The total binding tube was spiked with 20-30 μg of the expressed membrane receptor protein and […] ligand (1-2 nM), the corresponding non-specific binding tube was spiked with 1 μM of the corresponding ligand, and the sample tubes were spiked with various screened opioid ligands in a final volume of […], incubated at 30° C. for 30 min, and the reaction was terminated in ice water. […] The samples were filtered under negative pressure through GF/C (whatman) glass fiber filter paper on a Millipore sample collector. The reaction was rinsed three times with 4 ml of 50 mMV Tris-HCl (pH 7.4), the filter paper was dried and placed in 0.5 ml Eppendorf tubes with 0.5 ml of lipophilic scintillation solution, the radioactivity was measured by PERKIN ELMER PRI-CARB 2910 liquid scintillation counter and the inhibition rate was calculated. Inhibition rate (or binding rate)=(total binding rate dpm−sample tube dpm)/(total binding tube dpm−non-specific binding tube dpm)×100%
(§3) IC50 was calculated using Prism 5.0 software. the Ki value was calculated as follows, Ki=IC50/(1+[IL]/Kd), [lL] is the concentration of the added labeled ligand and Kd is the equilibrium dissociation parameter of the labeled ligand.
(§4) CHO cells expressing p opioid receptor, δ opioid receptor and κ opioid receptor were cultured in a 10 cm^2 culture dish (F-12 medium+10% neonatal bovine serum) for several days, and the culture fluid was aspirated after the cells grew to the bottom of the dish. 3 mL PBS/EDTA solution (0.1 M NaCl, 0.01 M NaH2PO4, 0.04% EDTA) was added to digest the cells for 3˜5 min, blew with a pipette to completely dislodge the cells. The cells were collected in a 40 mL centrifuge tube, centrifuged at 5000 rpm for 5 min. The supernatant was removed and the ice-cold homogenate (50 mM HEPES pH 7.4, 3 mM MgCl2, 1 mM EGTA) was added to the centrifuge tube. The solution and the precipitate were transferred to a homogenizer. Then the homogenate was transferred to a centrifuge tube and centrifuged at 18000 rpm for 15 min. The precipitate was centrifuged twice at 18000 rpm for 15 min. The obtained precipitate was homogenized by adding appropriate amount of 50 mM Tris-HCl, pH 7.4 buffer and divided into centrifuge tubes and stored at −70° C. in the refrigerator until use.
(§5) The total binding tube was added with 20-30 μg of expressed membrane receptor protein and [3H]-labeled ligand (1-2 nM). The corresponding non-specific binding tube was added with 1 μM of the corresponding ligand, and the sample tubes were added with various screened opioid ligands in a final volume of 100 μL. All of them were incubated for 30 min at 30° C., and the reaction was terminated in ice water. The samples were filtered under negative pressure through GF/C (Whatman) glass fiber filter paper on a Millipore sample collector. The reaction was rinsed three times with 4 mL of 50 mM Tris-HCl (pH 7.4), the filter paper was dried and placed in 0.5 mL Eppendorf tubes with 0.5 mL of lipophilic scintillation solution. […]

Female mice = assay: In vivo hot plate method analgesia test; conditions: intraperitoneal; for Maximum percentage effective analgesia (% MPE): Table 5-2, hot plate 55° C.; for Maximum percentage effective analgesia (% MPE) / % MPE @ 10 mg/kg: 10 mg/kg dose; for % MPE (5 mg/kg): Table 2-2, hot plate 55° C.; for % MPE @ 10 mg/kg: Table 3-2, hot plate 55° C.
Experimental: Female mice weighing about 20 g were placed on a hot plate apparatus preheated to 55° C., and the latency of the hindfoot response of the mice was used as the pain threshold indicator. Animals were screened before the experiment, and those with response latency less than 5 s or more than 30 s were excluded. To prevent foot scalding, the maximum observation time was set at 60 s. The basal pain threshold was the average of two measurements, with a 5-min interval between measurements. pain thresholds were measured at 15 m, 30 m, 60 m and 120 m after intraperitoneal injection in each group of mice. The percentage effective analgesia (% MPE) was calculated according to the following formula: percentage effective analgesia (% MPE) (post-dose latency−pre-dose latency)/(60−pre-dose latency)×100%. ED50 values were calculated based on the effective percentage of analgesia using the software Graphpad prism 5.0 software.
(§6) Female mice weighing about 20 g were placed on a hot plate apparatus preheated to 55° C., and the latency of the hindfoot response of the mice was used as the pain threshold indicator. Animals were selected before the experiment, and those with response latency less than 5 s or greater than 30 s were excluded. To prevent foot scalding, the maximum observation time was set at 60 s. The basal pain threshold was the average of two measurements, with a 5-min interval between measurements. pain thresholds were measured at 15 min, 30 min, 60 min and 120 min after intraperitoneal administration in each group of mice. The percentage of analgesic effectiveness (% MPE) was calculated according to the following equation. Percentage of effective analgesia (% MPE)_(Pre-dose incubation period−Incubation period after drug administration)/(60-Pre-dose incubation period)×100%. ED50 values were calculated based on the effective percentage of analgesia using GraphPad prism 5.0 software.
as §6, with “were screened” for “were selected”, “measurements. Pain” for “measurements. pain”, “following formula.” for “following equation. Percentage of effective analgesia (% MPE)_(Pre-dose incubation period−Incubation period after drug administration)/(60-Pre-dose incubation period)×100%. ED50 values were calculated based on the effective percentage of analgesia using GraphPad prism 5.0 software.”
ED50 values were calculated based on the effective percentage of analgesia using Graphpad Prism 5.0.
Female mice weighing about 20 g were placed on a hot plate apparatus preheated to 55° C., and the latency of the hindfoot response of the mice was used as the pain threshold indicator. Animals were screened before the experiment, and those with response latency less than 5 s or more than 30 s were excluded. To prevent foot scalding, the maximum observation time was set at 60 s. The basal pain threshold was the average of two measurements, with a 5-min interval between measurements. pain thresholds were measured at 15 min, 30 min, 60 min and 120 min after intraperitoneal administration in each group of mice. The analgesic effective percentage (% MPE) was calculated according to the following formula: analgesic effective percentage (% MPE)=(latency after drug administration−latency before drug administration)/(60−latency before drug administration)×100%. ED50 values were calculated based on the effective percentage of analgesia using the software Graphpad prism 5.0.
Female mice weighing about 20 g were placed on a hot plate apparatus preheated to 55° C. and the latency of the hindfoot response was used as an indicator of pain threshold. […]

μ opioid receptor = target: T2, μ opioid receptor (Homo sapiens, UniProt P35372); assay: Competition binding assay on membranes of CHO cells expressing μ opioid receptor, [3H]-labeled ligand; conditions: for Ki: read-out: μOR Ki
T2 construct: expressed in transfected cells; host or cells: CHO cells (membranes)
Experimental: as §1, §2, §3, §4, §5

δ opioid receptor = target: T3, δ opioid receptor (Homo sapiens, UniProt P41143); assay: Competition binding assay on membranes of CHO cells expressing δ opioid receptor, [3H]-labeled ligand; conditions: for Ki: read-out: δOR Ki
T3 construct: expressed in transfected cells; host or cells: CHO cells (membranes)
Experimental: as §1, §2, §3, §4, §5

[1] = 0.5 h, Table 5-1, 1 μM concentration of compound, read-out: μOR Combination rate (%)
[2] = 0.5 h, Table 2-1, 1 μM concentration of compound, read-out: κOR Binding rate (%)
[3] = 0.5 h, Table 3-1, 1 μM concentration of compounds, read-out: κOR Binding rate (%)
[4] = Table 3-1, 1 μM concentration of compounds, read-out: μOR Binding rate (%)
[5] = 0.5 h, Table 3-1, 1 μM concentration of compounds, read-out: δOR Binding rate (%)
[6] = 0.5 h, Table 5-1, 1 μM concentration of compound, read-out: κOR Combination rate (%)
[7] = 0.5 h, Table 5-1, 1 μM concentration of compound, read-out: δOR Combination rate (%)

Structure (SMILES): COc1cccc(C2(O)CCN(C(=O)Cc3cccc(C(F)(F)F)c3)CC2CN(C)C)c1.Cl (stereo not shown) [FWBE4, 1-(3-((Dimethylamino)methyl)-4-hydroxy-4-(3-methoxyphenyl)piperidin-1-yl)-2-(3-(trifluoromethyl)phenyl)ethyl-1-one hydrochloride]
- Ki (κ opioid receptor; Table 5-1): 3030 ± 150 nM
- Maximum percentage effective analgesia (% MPE) (Female mice): 69%
- inhibition at 1 µM (μ opioid receptor; [1]): 37.8 ± 2.9%
- Ki (δ opioid receptor; Table 5-1): > 10000 nM

Structure (SMILES): COc1cccc(C2(O)CCN(S(=O)(=O)CCc3ccccc3)CC2CN(C)C)c1.Cl (stereo not shown) [FWBH9, 3-((Dimethylamino)methyl)-4-(3-methoxyphenyl)-1-(phenethylsulfonyl)piperidin-4-ol hydrochloride]
- inhibition at 1 µM (κ opioid receptor; [2]): 8.41 ± 1.66%
- % MPE (5 mg/kg) (Female mice; 5 mg/kg dose): 100%
- Ki (μ opioid receptor; Table 2-1): 1.79 ± 2 nM
- inhibition at 1 µM (δ opioid receptor; 0.5 h, Table 2-1, 1 μM concentration of compound, read-out: δOR Binding rate (%)): 0%

Structure (SMILES): COC(=O)c1sccc1NC(=O)N1CCC(O)(c2cccc(OC)c2)C(CN(C)C)C1 (stereo not shown) [FWBF17, Methyl 3-(3-((dimethylamino)methyl)-4-hydroxy-4-(3-methoxyphenyl)piperidine-1-carboxamide) thiophene-2-carboxylate hydrochloride]
- inhibition at 1 µM (κ opioid receptor; [3]): 0%
- % MPE @ 10 mg/kg (Female mice): 19.34%
- inhibition at 1 µM (μ opioid receptor; [4]): 10.2 ± 9%
- inhibition at 1 µM (δ opioid receptor; [5]): 0%

Structure (SMILES): COc1cccc(C2(O)CCN(C(=O)Cc3cccc(OC(F)(F)F)c3)CC2CN(C)C)c1.Cl (stereo not shown) [FWBE6, 1-(3-((Dimethylamino)methyl)-4-hydroxy-4-(3-methoxyphenyl)piperidin-1-yl)-2-(3-(trifluoromethoxy)phenyl)ethyl-1-one hydrochloride]
- inhibition at 1 µM (κ opioid receptor; [6]): 13.5 ± 0.6%
- Maximum percentage effective analgesia (% MPE) (Female mice): 47%
- inhibition at 1 µM (μ opioid receptor; [1]): 21.5 ± 0.1%
- inhibition at 1 µM (δ opioid receptor; [7]): 13.2 ± 1%

Structure (SMILES): COc1cccc(C2(O)CCN(C(=O)Cc3cccc(F)c3)CC2CN(C)C)c1.Cl (stereo not shown) [FWBE12, 1-(3-((Dimethylamino)methyl)-4-hydroxy-4-(3-methoxyphenyl)piperidin-1-yl)-2-(3-fluorophenyl)ethyl-1-one hydrochloride]
- Ki (κ opioid receptor; Table 5-1): 2360 ± 95.5 nM
- Maximum percentage effective analgesia (% MPE) (Female mice): 88.38%
- Ki (μ opioid receptor; Table 5-1): 82.3 ± 3.8 nM
- Ki (δ opioid receptor; Table 5-1): 2390 ± 46 nM

Structure (SMILES): COc1cccc(C2(O)CCN(C(=O)Cc3cccc(C#N)c3)CC2CN(C)C)c1.Cl (stereo not shown) [FWBE21, 3-(2-(3-((Dimethylamino)methyl)-4-hydroxy-4-(3-methoxyphenyl)piperidin-1-yl)-2-oxoethyl) benzonitrile hydrochloride]
- inhibition at 1 µM (κ opioid receptor; [6]): 42.3 ± 3.3%
- Maximum percentage effective analgesia (% MPE) (Female mice): 67.09%
- inhibition at 1 µM (μ opioid receptor; [1]): 28.9 ± 17%
- inhibition at 1 µM (δ opioid receptor; [7]): 25.4 ± 4.4%

Structure (SMILES): COc1cccc(C2(O)CCN(C(=O)Cc3ccc4ccccc4c3)CC2CN(C)C)c1.Cl (stereo not shown) [FWBE15, 1-(3-((Dimethylamino)methyl)-4-hydroxy-4-(3-methoxyphenyl)piperidin-1-yl)-2-(naphthalen-2-yl)ethyl-1-one hydrochloride]
- Ki (κ opioid receptor; Table 5-1): 2651 ± 3.5 nM
- Maximum percentage effective analgesia (% MPE) (Female mice): 0%
- Ki (μ opioid receptor; Table 5-1): 81.6 ± 1 nM
- Ki (δ opioid receptor; Table 5-1): > 10000 nM

Structure (SMILES): COc1cccc(C2(O)CCN(C(=O)Nc3ccc4ccccc4c3)CC2CN(C)C)c1 (stereo not shown) [FWBF11, 3-((Dimethylamino)methyl)-4-hydroxy-4-(3-methoxyphenyl)-N-(naphthalen-2-yl)piperidine-1-carboxamide hydrochloride]
- inhibition at 1 µM (κ opioid receptor; [3]): 3.9%
- % MPE @ 10 mg/kg (Female mice): 4.41%
- inhibition at 1 µM (μ opioid receptor; [4]): 0.5%
- inhibition at 1 µM (δ opioid receptor; [5]): 0%

Structure (SMILES): COc1cccc(C2(O)CCN(S(=O)(=O)Cc3cccc(C(F)(F)F)c3)CC2CN(C)C)c1.Cl (stereo not shown) [FWBH10, 3-((Dimethylamino)methyl)-4-(3-methoxyphenyl)-1-((3-(trifluoromethyl)benzyl)sulfonyl) piperidin-4-ol hydrochloride]
- inhibition at 1 µM (κ opioid receptor; [2]): 30.1 ± 0.7%
- % MPE (5 mg/kg) (Female mice; 5 mg/kg dose): 72.41%
- Ki (μ opioid receptor; Table 2-1): 4.68 ± 0.12 nM
- Ki (δ opioid receptor; Table 2-1): 3650 ± 1250 nM

Structure (SMILES): COc1cccc(C2(O)CCC(N(Cc3ccccc3)S(=O)(=O)c3cccs3)CC2CN(C)C)c1.Cl (stereo not shown) [N-Benzyl-N-(3-((dimethylamino)methyl)-4-hydroxy-4-(3-methoxyphenyl)cyclohexyl)thiophene-2-sulfonamide hydrochloride]
- inhibition at 10 µM (κ opioid receptor; 0.5 h, Table 1-1, 10 μM concentration of compound, read-out: κOR Binding rate (%)): 71.2 ± 2.7%
- Maximum percentage effective analgesic (% MPE) (Female mice; Table 1-2, hot plate 55° C., 5 mg/kg dose): 22.8%
- inhibition at 10 µM (μ opioid receptor; Table 1-1, 10 μM concentration of compound, mean ± SD of three measurements, read-out: μOR Binding rate (%)): 68.4 ± 3.4%
- inhibition at 10 µM (δ opioid receptor; 0.5 h, Table 1-1, 10 μM concentration of compound, read-out: δOR Binding rate (%)): 0%
